Like-named read-outs stand apart in the source and are kept apart here.
How the values were obtained:
[1] = tested on: Trichomonas vaginalis G3 trophozoites; assay: microbe, parasite or virus in culture; conditions: 48 h
[2] = tested on: nontumorigenic neonatal foreskin fibroblast (NFF) cell line
[3] = read-out: T.vaginalis_%inb_Rep1
[4] = read-out: T.vaginalis_%inb_Rep2
[5] = NFF fibroblasts, single concentration 5 µg/mL
[6] = NFF fibroblast screen at 5 µg/mL, A = active, I = inactive

| Compound | inhibition of growth at 1 µg/mL [1, 3] | inhibition of growth at 1 µg/mL [1, 4] | NFF_Activity [2, 5] | NFF_Activity [2, 6] |
| --- | --- | --- | --- | --- |
| CN1C(=O)[C@]23C[C@@H]4C(C)(C)[C@@]5(C[C@@]41CN2CC[C@@]3(C)O)C(=O)Nc1c5ccc2c1OC=CC(C)(C)O2 [Paraherquamide A] | 15.8% | 15.5% | I (otherwise these were reported as inactive (I)) |  |
| C=C[C@]1(C)C[C@@H](OC(=O)CO)[C@]2(C)[C@H](C)CC[C@]3(CCC(=O)[C@H]32)[C@@H](C)[C@@H]1O [Pleuromutilin] | 10.1% | 11.7% | I (otherwise these were reported as inactive (I)) |  |
| C=C(NC(=O)c1csc(-c2nc3c(cc2O)-c2nc(cs2)C(=O)NC(C(C)O)C(=O)N/C(=C\C)c2nc(cs2)C(=O)NC2CC(O)C(=O)OCc4cccc5[nH]c(c(C)c45)C(=O)SCC(NC(=O)c4csc2n4)c2nc-3cs2)n1)C(N)=O (stereo not drawn) [Nosiheptide] | 2.89% | 6.03% | I (otherwise these were reported as inactive (I)) |  |
| COc1cc(C(=O)O)c2c(c1C)OC(=O)c1c(C)cc(O)c(C=O)c1O2 [Psoromic acid] | 13.9% | 10.4% | I (otherwise these were reported as inactive (I)) |  |
| CC[C@H]1C[C@@H]2CC[C@@H](O2)[C@@H](C)C(=O)O[C@H](C)C[C@H]2CC[C@H](O2)[C@H](C)C(=O)O[C@@H](C)C[C@@H]2CC[C@@H](O2)[C@@H](C)C(=O)O[C@H](C)C[C@H]2CC[C@H](O2)[C@H](C)C(=O)O1 [Monactin] | 10% | 10.7% | I (otherwise these were reported as inactive (I)) |  |
| Cc1nnc2n1-c1sc(CCC(=O)N3CCOCC3)cc1C(c1ccccc1Cl)=NC2 [WEB 2086] | 9.91% | 13.4% |  | I (otherwise these were reported as inactive (I)) |
| CC(C)=CCC[C@H](C)[C@H]1CC[C@]2(C)C[C@H]3[C@H](C(=O)C[C@@]3(C)O)/C(C=O)=C\C[C@@H]12 [Ophiobolin C] | 13.1% | 12.7% | A (active (A) compounds having >25% inhibitory activity) |  |
| CC(C)(O)[C@H]1O[C@H]2CC[C@@]3(C)[C@@](O)(CC[C@H]4Cc5c([nH]c6ccccc56)[C@@]43C)C2=CC1=O [Paxilline] | 10.1% | 13.3% | I (otherwise these were reported as inactive (I)) |  |
| CC[C@@H]1C=CC=CC[C@H](C)[C@@H](O)[C@@H](C)C(=O)[C@H](C)[C@@H](O)[C@H](C)C(=O)[C@H](C)[C@@H](O)[C@H](C)C=CC(=O)O[C@H]2[C@@H](C)[C@@H](CC1)O[C@@]1(CC[C@@H](C)[C@@H](C[C@H](C)O)O1)[C@@H]2C [Oligomycin C] | 11.3% | 12.9% | I (otherwise these were reported as inactive (I)) |  |
| CO/N=C1\C[C@]2(C[C@@H]3C[C@@H](C/C=C(\C)C[C@@H](C)/C=C/C=C4\CO[C@@H]5[C@H](O)C(C)=C[C@@H](C(=O)O3)[C@]45O)O2)O[C@H](/C(C)=C/C(C)C)[C@H]1C [Moxidectin] | 9.23% | 6.09% | I (otherwise these were reported as inactive (I)) |  |
| CC(C)=C[C@H]1C[C@H](C)[C@]2(CC[C@]3(C)C[C@H]4[C@H](C(=O)C[C@@]4(C)O)/C(C=O)=C\C[C@H]32)O1 [Ophiobolin A] | 14.2% | 13% | A (active (A) compounds having >25% inhibitory activity) |  |
| Cn1c2ccccc2c(=O)c2c(O)cc3c(c21)C=CC(C)(C)O3 [Noracronycine] | 8.76% | 12.6% | I (otherwise these were reported as inactive (I)) |  |
| CC(C)[C@@H]1NC(=O)[C@H](C)OC(=O)[C@@H](C(C)C)NC(=O)[C@@H](C(C)C)OC(=O)[C@H](C(C)C)NC(=O)[C@H](C)OC(=O)[C@@H](C(C)C)NC(=O)[C@@H](C(C)C)OC(=O)[C@H](C(C)C)NC(=O)[C@H](C)OC(=O)[C@@H](C(C)C)NC(=O)[C@@H](C(C)C)OC1=O [Valinomycin] | 9.18% | 12.2% |  | I (otherwise these were reported as inactive (I)) |
| C=C(CC[C@]12O[C@H](C(=O)O)[C@@](O)(C(=O)O)[C@](C(=O)O)(O1)[C@H](OC(=O)/C=C/[C@@H](C)C[C@@H](C)CC)[C@H]2O)[C@@H](OC(C)=O)[C@H](C)Cc1ccccc1 [Zaragozic acid A] | 9.75% | 7.01% |  | I (otherwise these were reported as inactive (I)) |
| O=C(O)c1c(-c2ccc[nH]2)[nH]c2ccccc2c1=O [Penicinoline] | 13.9% | 11% | I (otherwise these were reported as inactive (I)) |  |
| C[C@H]1CCCC(=O)CCCCCc2cc(O)cc(O)c2C(=O)O1 [Zearalanone] | 10.1% | 14.6% |  | I (otherwise these were reported as inactive (I)) |
| C[C@@H]1Cc2c(Cl)cc(C(=O)N[C@@H](Cc3ccccc3)C(=O)O)c(O)c2C(=O)O1 [Ochratoxin A] | 13% | 11.6% | I (otherwise these were reported as inactive (I)) |  |
| CC[C@H]1CC2CN3CCc4c([nH]c5ccc(OC)cc45)[C@](C(=O)OC)(C2)[C@H]13 (stereo in doubt) [Voacangine] | 9.91% | 13.7% |  | I (otherwise these were reported as inactive (I)) |
| CC/C=C\[C@H](O)[C@H](O)C1=C(C)C(=O)[C@]2(O1)C(=O)N[C@@](OC)(C(=O)c1ccccc1)[C@@H]2O [Pseurotin A] | 11.5% | 11.5% | I (otherwise these were reported as inactive (I)) |  |
| C=C(NC(=O)C(=C)NC(=O)c1csc(C2=N[C@@H]3c4csc(n4)[C@H]4NC(=O)c5csc(n5)[C@H]([C@](C)(O)[C@@H](C)O)NC(=O)[C@H]5CSC(=N5)/C(=C/C)NC(=O)[C@H]([C@@H](C)O)NC(=O)c5csc(n5)[C@]3(CC2)NC(=O)[C@H](C)NC(=O)C(=C)NC(=O)[C@H](C)NC(=O)[C@H]([C@@H](C)CC)N[C@@H]2C=Cc3c([C@H](C)O)cc(nc3[C@H]2O)C(=O)O[C@@H]4C)n1)C(N)=O [Thiostrepton] | 9.91% | 14.3% |  | I (otherwise these were reported as inactive (I)) |
| COc1ccc2c3c4n(c2c1)[C@H](C=C(C)C)OOC(C)(C)C[C@@H]4N1C(=O)[C@@H]2CCCN2C(=O)[C@]1(O)[C@H]3O [Verruculogen] | 10.3% | 10.6% |  | I (otherwise these were reported as inactive (I)) |
| CCCCCCC(=O)CCCCCC/C=C/C[C@@H](O)[C@H](O)[C@@](N)(CO)C(=O)O [Myriocin] | 10.9% | 15.1% | I (otherwise these were reported as inactive (I)) |  |

— paper PMC7897990, “TriTOX: A novel Trichomonas vaginalis assay platform for high-throughput screening of compound libraries” (International Journal for Parasitology: Drugs and Drug …, 2021)
